The values below come from ChEMBL document CHEMBL1150093, “Santolindiacetylene, a polyacetylene derivative isolated from the essential oil of Santolina canescens” (J Nat Prod, 1995).

Values after ≈ are worked out from the molar mass of the structure shown.

Assay [1] has as its system Radical scavenging activity. Description: Antioxidant activity assessed as DPPH radical scavenging activity. Format: functional. (Loss of DPPH colour is used to gauge radical scavenging.)
Assay [2] has as its system Rattus norvegicus. The experiment in a line: Antihepatotoxic activity against carbon tetrachloride-induced hepatotoxicity in Wistar rat liver assessed as decrease in serum glutamate pyruvate transaminase level at 7 mg/kg, ip administered 24 hrs before carbon tetrachloride intoxication relative to control. Format: functional. The settings on record: route intraperitoneal. Set-up: scale not given: the % may be the effect or the level left.

Assay [3] relates to Rattus norvegicus. Description: Antihepatotoxic activity against carbon tetrachloride-induced -induced hepatotoxicity in Wistar rat liver assessed as decrease in hepatic malondialdehyde level at 7 mg/kg, ip administered 24 hrs before carbon tetrachloride intoxication relative to control. Format: functional. The arrangement: scale not given: the % may be the effect or the level left. The following applies: route intraperitoneal.

For assay [4], the system named is Rattus norvegicus. The experiment in a line: Antihepatotoxic activity against carbon tetrachloride-induced hepatotoxicity in Wistar rat assessed as decrease in serum glutamate pyruvate transaminase level at 7 mg/kg, ip administered 24 hrs before carbon tetrachloride intoxication. The following applies: route intraperitoneal. Format: functional.
The subject of assay [5] is Rattus norvegicus. Description: Antihepatotoxic activity against carbon tetrachloride-induced hepatotoxicity in Wistar rat liver assessed as decrease in hepatic malondialdehyde level at 7 mg/kg, ip administered 24 hrs before carbon tetrachloride intoxication. Format: functional. The settings on record: route intraperitoneal.
The test system of assay [6] is Rattus norvegicus. The experiment in a line: Antihepatotoxic activity against carbon tetrachloride-induced hepatotoxicity in Wistar rat liver assessed as decrease in hepatic malondialdehyde level at 35 mg/kg, ip administered 24 hrs before carbon tetrachloride intoxication relative to control. Format: functional, organism-based. Set-up: dose 35 mg/kg; scale not given: the % may be the effect or the level left.

The subject of assay [7] is Rattus norvegicus. The experiment in a line: Antihepatotoxic activity against carbon tetrachloride-induced hepatotoxicity in Wistar rat liver assessed as decrease in serum glutamate pyruvate transaminase level at 35 mg/kg, ip administered 24 hrs before carbon tetrachloride intoxication relative to control. Format: functional, organism-based. The arrangement: dose 35 mg/kg; scale not given: the % may be the effect or the level left.

The subject of assay [8] is Rattus norvegicus. The experiment in a line: Antihepatotoxic activity against carbon tetrachloride-induced hepatotoxicity in Wistar rat liver assessed as decrease in serum glutamate pyruvate transaminase level at 35 mg/kg, ip administered 24 hrs before carbon tetrachloride intoxication. The arrangement: dose 35 mg/kg. Format: functional, organism-based.
The test system of assay [9] is Rattus norvegicus. Description: Antihepatotoxic activity against carbon tetrachloride-induced hepatotoxicity in Wistar rat liver assessed as decrease in hepatic malondialdehyde level at 35 mg/kg, ip administered 24 hrs before carbon tetrachloride intoxication. The arrangement: dose 35 mg/kg. Format: functional, organism-based.

`O=C1O[C@H]([C@@H](O)CO)C(O)=C1O`: the Activity in assay [1] stood at 2.7 µg/mL. The EC50 is the concentration needed to bring the measured effect to its halfway point. As to `CC1=CCC2CC1C2(C)C` (stereo not drawn) [ALPHA-PINENE], the EC50 in assay [1] came out at 330.6 mg/mL (≈ 2430 mM).

For `CC1=CC[C@@H](C(C)(C)O)CC1` [ALPHA-TERPINEOL], the EC50 in assay [1] worked out at 0.1463 mg/mL (≈ 0.948 mM). The same measure, in the same setting: to `C=C1C=CC(C(C)C)CC1` (stereo not drawn) [BETA-PHELLANDRENE] belongs 127.7 mg/mL (≈ 937 mM); to `C=C1CCC2CC1C2(C)C` (stereo not drawn) [BETA-PINENE], 220.1 mg/mL (≈ 1620 mM).

Turning to `CC1(C)C2CCC1(C)C(O)C2` (centres undefined) [BORNEOL], the EC50 in assay [1] stood at 2.4 mg/mL (≈ 15.6 mM). On the same count and under the same terms, in the case of `CC12CCC(CC1=O)C2(C)C` (centres undefined) [CAMPHOR] it was 2.4 mg/mL (≈ 15.8 mM).

Regarding `C=C(C)C1CC=C(C)C(=O)C1` (centres undefined) [CARVONE], the EC50 in assay [1] is 11.7 mg/mL (≈ 77.9 mM). Still for that read-out and setting: in the case of `C=C1CC/C=C(/C)CC[C@@H]2[C@@H]1CC2(C)C` [CARYOPHYLLENE] it was 0.0037 mg/mL (≈ 0.0181 mM). On the same count and under the same terms, in the case of `CC1=CCC(C(C)C)=CC1` [GAMMA-TERPINENE] it was 22 mg/mL (≈ 161 mM); in that of `C=CC(=C)CCC=C(C)C` [MYRCENE], 248 mg/mL (≈ 1820 mM). Still for that read-out and setting: in the case of `Cc1ccc(C(C)C)cc1` [P-CYMENE] it was 408 mg/mL (≈ 3040 mM); in that of `C=C1CCC2(C(C)C)CC12` (centres undefined) [SABINENE], 232.7 mg/mL (≈ 1710 mM).

As for `CC#CC#CCc1ccc2ccccc2c1` [SANTOLINDIACETYLENE], the Activity in the assay with Rattus norvegicus [2] amounted to 19.8%; in the assay with Rattus norvegicus [3] it was 33.3%; with Rattus norvegicus [4] it was 23.3 IU/L; in [1], 1.7 µg/mL; with Rattus norvegicus [5], 0.182 nmol/mL. Turning to `CC1=CCC(O)(C(C)C)CC1` (centres undefined) [TERPINEOL], in assay [1], the EC50 worked out at 53.7 mg/mL (≈ 348 mM). For the compound SILYMARIN, the Activity in assay [1] came out at 24.6 µg/mL; in the assay with Rattus norvegicus [6], 36.6%; in the assay on Rattus norvegicus [7] it was 23.7%; in the assay on Rattus norvegicus [8], 27.9 IU/L; with Rattus norvegicus [9], 0.2 nmol/mL.
